These results are taken from ChEMBL document CHEMBL4052617, “Antibacterial activity of N-methylbenzofuro[3,2-b]quinoline and N-methylbenzoindolo[3,2-b]-quinoline derivatives and study of their mode of action” (2017).

The structures appear in SMILES notation. ≈ marks a conversion by molar mass, not a printed value.

What all share (assay type): functional
In assay [1] the test system is Enterococcus faecium. Description: Antibacterial activity against antibiotic-susceptile Enterococcus faecium ATCC 49624 after 18 hrs by brain heart infusion broth microdilution method. To be noted: ATCC 49624, 18 h.
Assay [2] deals with Enterococcus faecium. Description: Antibacterial activity against vancomycin-resistant Enterococcus faecium ATCC 700221 after 18 hrs by brain heart infusion broth microdilution method. The settings on record: ATCC 700221, 18 h.
Assay [3] concerns Bacillus subtilis. As to the kind of experiment: Antibacterial activity against Bacillus subtilis 168 after 18 hrs by Mueller-Hinton broth microdilution method. To be noted: subsp. subtilis str. 168, 18 h.
The subject of assay [4] is Staphylococcus aureus. As to the kind of experiment: Antibacterial activity against Staphylococcus aureus ATCC 29213 after 18 hrs by cation adjusted Mueller-Hinton broth microdilution method. The settings on record: ATCC 29213, 18 h.
In assay [5] the test system is Staphylococcus aureus. Description: Antibacterial activity against methicillin-resistant Staphylococcus aureus ATCC BAA41 after 18 hrs by cation adjusted Mueller-Hinton broth microdilution method. The settings on record: ATCC BAA41, 18 h.
The test system of assay [6] is Escherichia coli. Description: Antibacterial activity against Escherichia coli ATCC 25922 after 18 hrs by Mueller-Hinton broth microdilution method. The settings on record: ATCC 25922, 18 h.
Assay [7] has as its system Escherichia coli. As to the kind of experiment: Antibacterial activity against Escherichia coli ATCC […] expressing NDM-1 beta-lactamase after 18 hrs by Mueller-Hinton broth microdilution method.
Assay [8] relates to Pseudomonas aeruginosa. Description: Antibacterial activity against multidrug-resistant Pseudomonas aeruginosa ATCC BAA2108 after 18 hrs by Mueller-Hinton broth microdilution method. To be noted: ATCC BAA2108, 18 h.
For assay [9], the system named is Klebsiella pneumoniae. As to the kind of experiment: Antibacterial activity against Klebsiella pneumoniae ATCC BAA2470 expressing NDM-1 beta-lactamase after 18 hrs by Mueller-Hinton broth microdilution method. The settings on record: ATCC BAA2470, 18 h.

Turning to `CCc1ccc(Nc2c3ccccc3[n+](C)c3c2oc2ccccc23)cc1.[I-]`, the MIC in assay [1] was found to be 8 µg/mL; in assay [2], 8 µg/mL; in [3], 6 µg/mL; in assay [4] it was 6 µg/mL; in assay [5], 6 µg/mL; in assay [6], 12 µg/mL. For the same compound, the minimal inhibitory concentration (MIC) in assay [7] was 12 µg/mL; in assay [8], > 64 µg/mL; in assay [9], > 64 µg/mL.
For `C[n+]1c2ccccc2c(Nc2ccc(OC(F)(F)F)cc2)c2[nH]c3ccccc3c21.[I-]`, the MIC was 4 µg/mL in [1]; 4 µg/mL in assay [2]; 2 µg/mL in [3]; 2 µg/mL in assay [4]; 2 µg/mL in assay [5]; 6 µg/mL in assay [6]. The values for the MIC in assay [7], in [8] and in assay [9] were 6 µg/mL, 48 µg/mL and 48 µg/mL, respectively.
Consider `Cc1cc(F)ccc1Nc1c2ccccc2[n+](C)c2c1[nH]c1ccccc12.[I-]`, for which the MIC in assay [1] was 8 µg/mL; in [2], 8 µg/mL; in [3], 4 µg/mL; in [4], 4 µg/mL; in [5], 4 µg/mL; in assay [6], 8 µg/mL. The minimum inhibitory concentration (MIC) in assay [7] was found to be 8 µg/mL; in assay [8], 64 µg/mL; in assay [9], 64 µg/mL.
For `COc1ccccc1Nc1c2ccccc2[n+](C)c2c1oc1ccccc12.[I-]`, the MIC was determined as 8 µg/mL in assay [1]; 8 µg/mL in [2]; 6 µg/mL in assay [3]; 6 µg/mL in assay [4]; 6 µg/mL in assay [5]; 12 µg/mL in assay [6]. Moreover, the values for the minimal inhibitory concentration (MIC) in [7], in assay [8] and in [9] were 12 µg/mL, > 64 µg/mL and > 64 µg/mL, respectively.
Turning to `C[n+]1c2ccccc2c(Nc2ccccc2)c2oc3ccccc3c21.[I-]`, the minimal inhibitory concentration (MIC) in assay [1] amounted to 12 µg/mL; in [2] it was 12 µg/mL; in assay [3], 8 µg/mL; in [4], 8 µg/mL; in assay [5] it was 8 µg/mL; in assay [6] it was 16 µg/mL. Moreover, the MIC in [7] was 16 µg/mL; in [8] it was > 64 µg/mL; in assay [9] it was > 64 µg/mL.
Take `C[n+]1c2ccccc2c(Nc2ccc(F)cc2F)c2[nH]c3ccccc3c21.[I-]`: the MIC stood at 8 µg/mL in assay [1]; 8 µg/mL in assay [2]; 4 µg/mL in assay [3]; 4 µg/mL in assay [4]; 4 µg/mL in assay [5]; 8 µg/mL in [6]. Further, the MIC in [7] was 8 µg/mL; in assay [8] it was 64 µg/mL; in [9], 64 µg/mL.
Turning to `COc1cccc(Nc2c3ccccc3[n+](C)c3c2oc2ccccc23)c1.[I-]`, the MIC in assay [1] worked out at 8 µg/mL; in assay [2], 8 µg/mL; in assay [3] it was 6 µg/mL; in assay [4], 6 µg/mL; in assay [5] it was 6 µg/mL; in assay [6], 12 µg/mL. The MIC in [7] was 12 µg/mL; in [8], > 64 µg/mL; in assay [9], > 64 µg/mL.
Consider `COc1ccccc1Nc1c2ccccc2[n+](C)c2c1[nH]c1ccccc12.[I-]`, for which the minimum inhibitory concentration (MIC) was determined as 8 µg/mL in assay [1]; 8 µg/mL in assay [2]; 4 µg/mL in assay [3]; 4 µg/mL in assay [4]; 4 µg/mL in [5]; 8 µg/mL in assay [6]. Also, the MIC was determined as 8 µg/mL in assay [7], 64 µg/mL in [8] and 64 µg/mL in [9].
For the compound `COc1ccc2cc3[n+](cc2c1OC)CCc1cc2c(cc1-3)OCO2.[Cl-]` [BERBERINE CHLORIDE], the MIC is > 192 µg/mL in assay [1]; > 192 µg/mL in assay [2]; 128 µg/mL in assay [3]; 128 µg/mL in [4]; 192 µg/mL in assay [5]; > 192 µg/mL in assay [6]. Moreover, the minimal inhibitory concentration (MIC) in assay [7], in assay [8] and in assay [9] was > 192 µg/mL in each case.
As for `C[n+]1c2ccccc2c(Nc2ccc(OC(F)(F)F)cc2)c2oc3ccccc3c21.[I-]`, the MIC stood at 6 µg/mL in assay [1]; 6 µg/mL in [2]; 4 µg/mL in assay [3]; 4 µg/mL in assay [4]; 4 µg/mL in assay [5]; 8 µg/mL in assay [6]. The MIC in [7] was 8 µg/mL; in [8], 64 µg/mL; in [9], 64 µg/mL.
Turning to `C[n+]1c2ccccc2c(Nc2ccccc2)c2[nH]c3ccccc3c21.[I-]`, the minimal inhibitory concentration (MIC) was 8 µg/mL in assay [1]; 8 µg/mL in assay [2]; 6 µg/mL in [3]; 6 µg/mL in [4]; 6 µg/mL in assay [5]; 12 µg/mL in assay [6]. The results for the MIC in [7], in assay [8] and in assay [9] were 12 µg/mL, > 64 µg/mL and > 64 µg/mL, respectively.
Consider `C[n+]1c2ccccc2c(Nc2cccc(F)c2)c2oc3ccccc3c21.[I-]`, for which the MIC in [1] was 12 µg/mL; in [2], 12 µg/mL; in assay [3] it was 8 µg/mL; in assay [4], 8 µg/mL; in [5], 8 µg/mL; in [6], 16 µg/mL. Moreover, the results for the minimal inhibitory concentration (MIC) in assay [7], in assay [8] and in [9] were 16 µg/mL, > 64 µg/mL and > 64 µg/mL, respectively.
`Cc1ccc(Nc2c3ccccc3[n+](C)c3c2[nH]c2ccccc23)cc1C.[I-]`: the minimum inhibitory concentration (MIC) was 8 µg/mL in assay [1]; 8 µg/mL in assay [2]; 4 µg/mL in assay [3]; 4 µg/mL in [4]; 4 µg/mL in assay [5]; 8 µg/mL in [6]. In addition, the MIC in assay [7] is 8 µg/mL; in assay [8], > 64 µg/mL; in assay [9], > 64 µg/mL.
Consider `Cc1ccc(Nc2c3ccccc3[n+](C)c3c2oc2ccccc23)cc1.[I-]`, for which the MIC in [1] was 8 µg/mL; in assay [2], 8 µg/mL; in assay [3], 6 µg/mL; in assay [4], 6 µg/mL; in assay [5], 6 µg/mL; in [6], 12 µg/mL. In addition, the minimum inhibitory concentration (MIC) was 12 µg/mL in assay [7], > 64 µg/mL in assay [8] and > 64 µg/mL in [9].
`Cc1cc(F)ccc1Nc1c2ccccc2[n+](C)c2c1oc1ccccc12.[I-]`: the minimal inhibitory concentration (MIC) in assay [1] was determined as 8 µg/mL; in assay [2] it was 8 µg/mL; in assay [3], 6 µg/mL; in assay [4] it was 6 µg/mL; in [5], 6 µg/mL; in assay [6], 12 µg/mL. Besides, the MIC in assay [7] is 12 µg/mL; in [8], > 64 µg/mL; in assay [9], > 64 µg/mL.
For the compound `CN[C@H](CC(C)C)C(=O)N[C@H]1C(=O)N[C@@H](CC(N)=O)C(=O)N[C@H]2C(=O)N[C@H]3C(=O)N[C@H](C(=O)N[C@H](C(=O)O)c4cc(O)cc(O)c4-c4cc3ccc4O)[C@H](O)c3ccc(c(Cl)c3)Oc3cc2cc(c3O[C@@H]2O[C@H](CO)[C@@H](O)[C@H](O)[C@H]2O[C@H]2C[C@](C)(N)[C@H](O)[C@H](C)O2)Oc2ccc(cc2Cl)[C@H]1O` [VANCOMYCIN], the minimum inhibitory concentration (MIC) in assay [2] is > 64 µg/mL; in [3] it was 1 µg/mL (≈ 0.69 µM); in assay [6], 2 µg/mL (≈ 1.38 µM); in assay [7], 6 µg/mL (≈ 4.14 µM); in assay [8] it was > 64 µg/mL; in assay [9], > 64 µg/mL.
Take `COc1cccc(OC)c1C(=O)N[C@@H]1C(=O)N2[C@@H]1SC(C)(C)[C@@H]2C(=O)O` [METHICILLIN]: the MIC is 0.5 µg/mL (≈ 1.31 µM) in assay [3]; 1 µg/mL (≈ 2.63 µM) in assay [4]; > 192 µg/mL in assay [5]; 4 µg/mL (≈ 10.5 µM) in assay [6]; > 192 µg/mL in [7]; > 192 µg/mL in assay [8]. Besides, in assay [9], the MIC was > 192 µg/mL.
